From paper PMC11744769, “Modulation of the mechanism of action of antibacterial silver N-heterocyclic carbene complexes by variation of the halide ligand” (RSC Advances, 2025)

Molecular target: T1, thioredoxin reductase (TrxR) (Escherichia coli, UniProt P0A9P4)
T1 construct: gene trxB
Assay: DTNB reduction kinetic assay with Trx and NADPH in lysates of treated E. coli DSM […] cells
Format: cell-based

T1 sequence (P0A9P4 2-321): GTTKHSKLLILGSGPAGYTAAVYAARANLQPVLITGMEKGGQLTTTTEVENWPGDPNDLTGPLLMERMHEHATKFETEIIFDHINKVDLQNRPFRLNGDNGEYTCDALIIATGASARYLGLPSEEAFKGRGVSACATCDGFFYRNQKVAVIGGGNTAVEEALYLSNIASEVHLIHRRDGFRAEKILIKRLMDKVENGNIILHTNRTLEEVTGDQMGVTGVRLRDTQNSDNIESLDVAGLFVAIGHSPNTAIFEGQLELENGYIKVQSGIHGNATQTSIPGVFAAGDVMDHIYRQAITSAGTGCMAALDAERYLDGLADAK

| SMILES | IC50 |
| --- | --- |
| COCCn1[c]([Ag-][I])[n+](Cc2ccccn2)c2ccccc21 [2-I] | ~6 µM |
| CC(C)n1[c]([Ag-][I])[n+](Cc2ccccn2)c2ccccc21 [1-I] | ~6 µM |
| CC(C)n1[c]([Ag-][Cl])[n+](Cc2ccccn2)c2ccccc21 [1-Cl] | ~11 µM |
| COCCn1[c]([Ag-][Cl])[n+](Cc2ccccn2)c2ccccc21 [2-Cl] | ~11 µM |
